{"source": "patent US9050275B2", "about": "“Methods of screening for and treating autism spectrum disorders and compositions for same” (Theta Biomedical Consulting & Development Co., Inc., priority 2009, dated 2015)", "key": {"[1]": {"system": "LAD2 human mast cells", "test": "cells", "type": "cell-based", "details": "for VEGF release / SP-induced VEGF release / HgCl2-induced VEGF release: 24 hours; for inhibition at 100 µM: Homo sapiens, LAD2, luteolin 0.1 mM, 10 min pretreatment", "description": "(§1) LAD2 human mast cells were cultured in serum-free media (StemPro-34; GIBCO, Grand Island, N.Y.) supplemented with 2 mM L-glutamine, 100 IU/ml penicillin, 50 μg/ml streptomycin, and 100 ng/ml recombinant human Stem Cell Factor (rhSCF, obtained from Amgen, Inc., Thousand Oaks, Calif.). For optimal cell growth, LAD2 cell density was maintained between 0.5×106 and 1×10^6 cells/ml. Cell viability was assessed at 1 and 24 hr using trypan blue (0.3%) exclusion.\nLAD2 cells were washed with DPBS and suspended in complete culture medium. LAD2 cells (2×10^5 cells/well/200 μl) were plated in 96 well flat bottom Falcon cell culture plates (Becton Dickinson, Franklin Lakes, N.J.) and were pre-incubated for 15 min at 37° C. in 5% CO2 atmosphere. The cells were then incubated with either SP (2 μM), HgCl2 (10 μM), or thimerosal (1, 10 μM) for 24 hours at 37° C. Control cells were treated with equal volume of only culture medium. For the inhibition experiments, thimerosal or methyl thiosalicylate were added together with the triggers, while luteolin was added 10 min before the triggers. After the reaction time, plates were centrifuged and the supernatant was gently collected from the wells and stored at −20° C. until VEGF was measured by Enzyme-Linked Immunosorbent Assay (ELISA) using a commercial kit (R&D Systems, Minneapolis, Minn.). The minimum detectable level of VEGF was 5 pg/ml."}, "[2]": {"system": "mast cells", "test": "Inhibition of mast cells by quercetin", "type": "cell-based", "details": "Mast cell"}, "[3]": {"system": "Male BALB/6 mice", "test": "Brain blood vessel leakage by Evans blue extravasation", "type": "in vivo", "method": "Male BALB/6 mice (6 weeks old, Jackson Laboratories, Bar Harbor, Me.) were injected in their tail vein with 0.2 ml of Evans blue (0.4%). Binding of Evans blue to the albumin found in the blood prevents Evans blue from escaping the circulation and constitutes a good biomarker from extravasation in brain parenchyma.\nMice were anesthetized with a single intraperitoneal injection of ketamine/xylazine (10 mg/kg and 80 mg/kg body weight, each), an intracardiac catheter was inserted in the left ventricle, blood was withdrawn, and 10 ml normal saline was administered intracardially to wash any Evans blue from the systemic circulation. The mice were then decapitated and the whole brain was removed. For brain extravasated Evans blue measurements, the brains were first weighed and the Evans blue was then extracted in 1 ml of N,N-dimethylformamide overnight at 55° C. and the optical density was measured at 620 nm using a PerkinElmer Luminescence Spectrophotometer (Perkin Elmer, Norwalk, Conn.). EB concentration was calculated using a standard curve and values were normalized to the tissue weight and expressed as arbitrary units/mg of tissue. Five animals per group were estimated to be sufficient for significant differences given the variability (<50%) observed. […] Values were then compared using the non-parametric Mann-Whitney U test. Significance is denoted by p<0.05."}, "[4]": {"system": "human cultured LAD2 cells", "test": "Release of mitochondrial DNA from LAD2 mast cells (real time PCR)", "type": "cell-based", "details": "5 min pretreatment with luteolin; neurotensin stimulation", "from_the_text": "Total DNA was extracted from supernatant fluids of cultured LAD2 cells using Qiagen DNA Micro extraction kit (Qiagen, Calif.). Mitochondrial specific DNA for Cytochrome B (Mt-CytB) and 7S (Mt-7S) was detected and quantified by Real time PCR using Taqman assay (Mt-7S: Hs02596861_s1; Mt-CYB: Hs02596867_s1; GAPDH: Hu, VIC, TAMRA, Applied Biosystems, Calif.). GAPDH DNA was used to exclude any genomic “contamination.”"}, "[5]": {"system": "LAD2 human mast cells", "details": "thimerosal 10 μM, 24 hours, trypan blue exclusion", "description": "as §1"}, "[6]": {"details": "substance 10 μM added together with SP (2 μM)"}}, "note": "Where “and” joins values, the source holds several entries; their conditions need not be identical. Equal entries are not always repeated. Where two headings read alike, the source gives them in different places. Where no end group is shown, it is not given here.", "data": [{"molecule": "[Cl][Hg][Cl]", "note": "[HgCl2, Mercury chloride]", "values": [{"measurement": "VEGF release", "setting": "[1]; 10 μM, no other trigger", "result": "488±76", "unit": "pg/106 cells"}, {"measurement": "SP-induced VEGF release", "setting": "[1]; [6]", "result": "553±63", "unit": "pg/106 cells"}]}, {"molecule": "COC(=O)c1ccccc1S", "note": "[Methyl thiosalicylate, methyl thiosalicylate]", "values": [{"measurement": "SP-induced VEGF release", "setting": "[1]; substance 1 μM added together with SP (2 μM)", "result": "281.63±24", "unit": "pg/106 cells"}, {"measurement": "HgCl2-induced VEGF release", "setting": "[1]; substance 1 μM added with HgCl2 (10 μM)", "result": "258±29", "unit": "pg/106 cells"}, {"measurement": "SP-induced VEGF release", "setting": "[1]; [6]", "result": "185.85±23", "unit": "pg/106 cells"}, {"measurement": "HgCl2-induced VEGF release", "setting": "[1]; substance 10 μM added with HgCl2 (10 μM)", "result": "249.5±24", "unit": "pg/106 cells"}]}, {"molecule": "O=c1c(O)c(-c2ccc(O)c(O)c2)oc2cc(O)cc(O)c12", "note": "[Quercetin]", "values": [{"measurement": "inhibition at 10 µM", "setting": "[2]", "result": 80, "unit": "%"}]}, {"molecule": "O=c1cc(-c2ccc(O)c(O)c2)oc2cc(O)cc(O)c12", "note": "[luteolin, 5,7,3′,4′-tetrahydroxyflavone]", "values": [{"measurement": "inhibition of NT-induced brain blood vessel leakage", "setting": "[3]; pretreatment with luteolin 40 mg/kg body weight mixed in olive kernel extract, NT 500 nmol/kg ip", "result": "completely inhibited"}, {"measurement": "inhibition of brain blood vessel leakage induced by IL-33 and NT", "setting": "[3]; pretreatment with the same amount of luteolin (40 mg/kg), IL-33 1 microg/mouse plus NT", "result": 50, "unit": "%"}, {"measurement": "inhibition of release of extracellular mt components from mast cells", "setting": "[4]", "result": "can be inhibited"}, {"measurement": "inhibition at 100 µM", "setting": "[1]; HgCl2 10 μM, read-out: inhibition of HgCl2-stimulated VEGF release", "result": 100, "unit": "%"}, {"measurement": "inhibition at 100 µM", "setting": "[1]; thimerosal 10 μM, read-out: inhibition of thimerosal-stimulated VEGF release", "result": 100, "unit": "%"}]}, {"molecule": "C[CH2][Hg][S]c1ccccc1C(=O)[O-].[Na+]", "note": "[thimerosal]", "values": [{"measurement": "VEGF release", "setting": "[1]; 1 μM, no other trigger", "result": "326±12", "unit": "pg/106 cells"}, {"measurement": "VEGF release", "setting": "[1]; 10 μM, no other trigger", "result": "335±12", "unit": "pg/106 cells"}, {"measurement": "SP-induced VEGF release", "setting": "[1]; [6]", "result": "274.5±35", "unit": "pg/106 cells"}, {"measurement": "decrease of viability", "setting": "[5]", "result": "less than 10%"}]}, {"molecule": "Substance P (RPKPQQFFGLM-NH2; ends and bridges not checked; UniProt P20366 58-68, looked up) [SP, neuropeptide, non-allergic mast cell trigger]", "values": [{"measurement": "VEGF release", "setting": "[1]; SP 2 μM alone", "result": "445±16 pg/106 cells and 413.72±18 pg/106 cells"}]}, {"molecule": "IL-33: interleukin-33, cytokine injected intraperitoneally (protein, UniProt O95760 1-270, looked up) Interleukin-33: MKPKMKYSTNKISTAKWKNTASKALCFKLGKSQQKAKEVCPMYFMKLRSGLMIKKEACYFRRETTKRPSLKTGRKHKRHLVLAACQQQSTVECFAFGISGVQKYTRALHDSSITGISPITEYLASLSTYNDQSITFALEDESYEIYVEDLKKDEKKDKVLLSYYESQHPSNESGDGVDGKMLMVTLSPTKDFWLHANNKEHSVELHKCEKPLPDQAFFVLHNMHSNCVSFECKTDPGVFIGVKDNHLALIKVDSSENLCTENILFKLSET", "values": [{"measurement": "brain leakage", "setting": "[3]; IL-33 1 microg/mouse, alone or with NT, Evans blue extravasation", "result": "no effect"}]}]}
